The values that follow come from ChEMBL document CHEMBL3046217, “Synthesis, antimicrobial, antioxidant, anti-inflammatory, and analgesic activities of some new 3-(2-thienyl)pyrazole-based heterocycles” (Med Chem Res, 2012).

The structures appear in SMILES notation. Converted amounts (≈) assume the structure as drawn. The source made the active and inactive calls. No cut-off for these calls is given here.

Test [1] relates to Mus musculus. As to the kind of experiment: Analgesic activity in Mus musculus Swiss albino (mouse) assessed as inhibition of acetic acid-induced writhing at 20 mg/kg, po administered 30 min before acetic acid challenge measured for 20 min after acetic acid injection […]. It counts as functional, organism-based. Set-up: dose 20 mg/kg. In general terms: Writhing tests count abdominal constrictions after an irritant is injected.

Test [2] has as its system Rattus norvegicus. Put plainly: Anti-inflammatory activity in Rattus norvegicus Sprague-Dawley (rat) assessed as inhibition of carrageenan-induced paw edema at 20 mg/kg, po administered 1 hr before carrageenan challenge and measured hourly for 4-hr post drug administration by mercury plethysmometer. It counts as functional, organism-based. More on the design: dose 20 mg/kg. Background: In the carrageenan paw model, swelling and tenderness develop within hours.

In test [3] the test system is Radical scavenging activity. As to the kind of experiment: Antioxidant activity assessed as as DPPH radical scavenging activity by spectrophotometry. The class given is functional. (In general: Loss of DPPH colour is used to gauge radical scavenging.)
Test [4] concerns Aspergillus niger. Put plainly: Antimicrobial activity against Aspergillus niger after 24 hr by agar diffusion method. It counts as functional, organism-based.
Test [5] deals with Saccharomyces cerevisiae. As to the kind of experiment: Antimicrobial activity against Saccharomyces cerevisiae after 24 hr by agar diffusion method. The class given is functional. To be noted: for MIC: Saccharomyces cerevisiae, 24 h.
Test [6] has as its system Candida albicans. Put plainly: Antimicrobial activity against Candida albicans NRRLY-477 after 24 hr by agar diffusion method. The class given is functional.
Test [7] has as its system Mycolicibacterium phlei. Put plainly: Antimicrobial activity against Mycobacterium phlei after 24 hr by agar diffusion method. It counts as functional.
The subject of test [8] is Enterococcus faecalis. Put plainly: Antimicrobial activity against Enterococcus faecalis ATCC 29212 after 24 hr by agar diffusion method. It counts as functional.
The test system of test [9] is Pseudomonas aeruginosa. As to the kind of experiment: Antimicrobial activity against Pseudomonas aeruginosa ATCC 29953 after 24 hr by agar diffusion method. The class given is functional.
The subject of test [10] is Klebsiella pneumoniae. As to the kind of experiment: Antimicrobial activity against Klebsiella pneumoniae ATCC 13883 after 24 hr by agar diffusion method. The class given is functional.
In test [11] the test system is Enterobacter cloacae. Put plainly: Antimicrobial activity against Enterobacter cloacae ATCC 3047 after 24 hr by agar diffusion method. The class given is functional.
The subject of test [12] is Salmonella typhi. Put plainly: Antimicrobial activity against Salmonella enterica subsp. enterica serovar Typhi after 24 hr by agar diffusion method. It counts as functional.
Test [13] deals with Bacillus spizizenii. As to the kind of experiment: Antimicrobial activity against Bacillus subtilis subsp. spizizenii ATCC 6633 after 24 hr by agar diffusion method. The note with it: for MIC: Bacillus spizizenii, ATCC 6633, 24 h. The class given is functional.
Test [14] has as its system Staphylococcus aureus. Put plainly: Antimicrobial activity against Staphylococcus aureus ATCC 29213 after 24 hr by agar diffusion method. To be noted: for MIC: Staphylococcus aureus, ATCC 29213, 24 h. It counts as functional.
Test [15] deals with Escherichia coli. To be noted: ATCC 25922.
Description: Antimicrobial activity against Escherichia coli ATCC 25922 after 24 hr by agar diffusion method

With `C(=N/Nc1nc(-c2cc3ccccc3o2)cs1)/c1cn(-c2ccccc2)nc1-c1cccs1`, the inhibition result in test [1] and in [2] was “Active” in each case. Further, the IC50 in [3] was determined as 25 µg/mL (≈ 53.5 µM). Moreover, the result in test [4] was inactive. Besides, the “inhibition zone (IZ)” value in test [5], in [6], in [7] and in [12] was “inactive” in each case. The “inhibition zone (IZ)” value in [8] is on record as 15 mm; in test [9], 14 mm; in [10], 15 mm; in test [11] it was 15 mm; in test [13] it was 23 mm; in test [14], 21 mm. Besides, the minimum inhibitory concentration (MIC) in test [13] and in [14] was 167 µg/mL (≈ 356 µM) throughout. Besides, the IZ entry in [15] was “inactive”.
Consider `O=C1CS/C(=N\N=C/c2cn(-c3ccccc3)nc2-c2cccs2)N1`, for which the inhibition entry in [1] and in test [2] was “Active” throughout. Further, the concentration for half-maximal inhibition (IC50) in [3] worked out at 500 µg/mL (≈ 1360 µM). The outcome in test [4] was inactive. The “inhibition zone (IZ)” value is listed as 29 mm in test [5]; 15 mm in test [8]; 13 mm in test [11]; 19 mm in [13]; 29 mm in test [14]. In addition, the MIC stood at 41.6 µg/mL (≈ 113 µM) in test [5], 167 µg/mL (≈ 453 µM) in test [13] and 20.8 µg/mL (≈ 56.6 µM) in [14]. In addition, the “inhibition zone (IZ)” value in [6], in [7], in test [9], in test [10] and in test [12] was “inactive” throughout. Moreover, the IZ result in test [15] was “inactive”.
For the compound `Cc1nc(N/N=C\c2cn(-c3ccccc3)nc2-c2cccs2)sc1/N=N/c1ccc(F)cc1`, the inhibition entry in test [1] and in test [2] was “Active” each time. The IC50 in [3] came to 25 µg/mL (≈ 51.3 µM). Also, the result in test [4] was inactive. In addition, the “inhibition zone (IZ)” value in test [5] came out at 31 mm; in [6], 17 mm; in test [8], 16 mm; in test [9], 19 mm; in test [10], 18 mm; in [11], 26 mm. In addition, the entries for the “inhibition zone (IZ)” value in [13] and in [14] were 22 mm and 21 mm, respectively. Besides, the MIC in test [5] was determined as 20.8 µg/mL (≈ 42.7 µM); in [6] (Candida albicans, NRRLY-477, 24 h) it was 167 µg/mL (≈ 342 µM); in [9] (Pseudomonas aeruginosa, ATCC 29953, 24 h), 333 µg/mL (≈ 684 µM); in test [10] (Klebsiella pneumoniae, ATCC 13883, 24 h) it was 167 µg/mL (≈ 342 µM); in test [11] (Enterobacter cloacae, ATCC 3047, 24 h), 41.6 µg/mL (≈ 85.3 µM); in [13], 167 µg/mL (≈ 342 µM). The same compound displayed an MIC in [14] of 41.8 µg/mL (≈ 85.7 µM). The “inhibition zone (IZ)” value in [7] and in test [12] was “inactive” in each case. Besides, the IZ result in [15] was “inactive”.

The term IC50 denotes the concentration at which inhibition is half-maximal. Usually MIC stands for the lowest concentration found to suppress growth. The low end stands for a more susceptible organism, the high end for a less susceptible organism.
